Laboratory results: ChEMBL document CHEMBL1201862, “PubChem BioAssay data set” (2004)
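Exposure lasted 48 hours, with cells grown in 96-well plates and compounds tested at five concentrations. The concentration for 50% growth inhibition is given as GI50.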 Calls of active or inactive are those of the source. Cut-off read from the data, not from the text of the source: active = GI50 up to about 1.1 µM and inactive = higher.

Key:
Assay in all cases: inhibition of tumour cell growth, NCI panel, 48 h
786-0 = test system: 786-0
ACHN = test system: ACHN
CAKI-1 = test system: CAKI-1
CCRF-CEM = test system: CCRF-CEM
COLO 205 = test system: COLO 205
DLD-1 = test system: DLD-1
DMS-114 = test system: DMS-114
DMS-273 = test system: DMS-273
HCC 2998 = test system: HCC 2998
HCT-116 = test system: HCT-116
HL-60 = test system: HL-60
HOP-62 = test system: HOP-62
HOP-92 = test system: HOP-92
IGROV-1 = test system: IGROV-1
K562 = test system: K562
LXFL 529 = test system: LXFL 529
M14 = test system: M14
M19-MEL = test system: M19-MEL
MOLT-4 = test system: MOLT-4
Malme-3M = test system: Malme-3M
NCI-H226 = test system: NCI-H226
NCI-H23 = test system: NCI-H23
NCI-H460 = test system: NCI-H460
NCI-H522 = test system: NCI-H522
OVCAR-4 = test system: OVCAR-4
RPMI-8226 = test system: RPMI-8226
SF-268 = test system: SF-268
SF-539 = test system: SF-539
SK-MEL-28 = test system: SK-MEL-28
SK-MEL-2 = test system: SK-MEL-2
SK-OV-3 = test system: SK-OV-3
SN12C = test system: SN12C
SNB-75 = test system: SNB-75
SNB-78 = test system: SNB-78
SR = test system: SR
UACC-62 = test system: UACC-62
UO-31 = test system: UO-31
A498 = test system: A498
EKVX = test system: EKVX
HCT-15 = test system: HCT-15
HT-29 = test system: HT-29
KM-20L2 = test system: KM-20L2
OVCAR-3 = test system: OVCAR-3
OVCAR-8 = test system: OVCAR-8
RXF 393 = test system: RXF 393
SNB-19 = test system: SNB-19
U-251 = test system: U-251
UACC-257 = test system: UACC-257
XF498 = test system: XF498

SMILES | GI50 (786-0) | GI50 (ACHN) | GI50 (DLD-1) | GI50 (DMS-114) | GI50 (HCC 2998) | GI50 (HCT-116) | GI50 (HOP-62) | GI50 (M19-MEL) | GI50 (MOLT-4) | GI50 (Malme-3M) | GI50 (NCI-H226) | GI50 (NCI-H23) | GI50 (NCI-H522) | GI50 (OVCAR-4) | GI50 (RPMI-8226) | GI50 (SF-268) | GI50 (SF-539) | GI50 (SK-MEL-28) | GI50 (SK-OV-3) | GI50 (SN12C) | also measured
CCCNC1CC(n2cc(C)c(=O)[nH]c2=O)OC1CO (centres undefined) | > 100 µM (inactive) | > 100 µM (inactive) | > 100 µM (inactive) | > 100 µM (inactive) | > 100 µM (inactive) | > 100 µM (inactive) | > 100 µM (inactive) | > 100 µM (inactive) | > 100 µM (inactive) | > 100 µM (inactive) | > 100 µM (inactive) | > 100 µM (inactive) | > 100 µM (inactive) | > 100 µM (inactive) | > 100 µM (inactive) | > 100 µM (inactive) | > 100 µM (inactive) | > 100 µM (inactive) | > 100 µM (inactive) | > 100 µM (inactive) | GI50 (CAKI-1): > 100 µM (inactive); GI50 (CCRF-CEM): > 100 µM (inactive); GI50 (COLO 205): > 100 µM (inactive); GI50 (DMS-273): > 100 µM (inactive); GI50 (HL-60): > 100 µM (inactive); GI50 (HOP-92): > 100 µM (inactive); GI50 (IGROV-1): > 100 µM (inactive); GI50 (K562): > 100 µM (inactive); GI50 (LXFL 529): > 100 µM (inactive); GI50 (M14): > 100 µM (inactive); GI50 (NCI-H460): > 100 µM (inactive); GI50 (SK-MEL-2): > 100 µM (inactive); GI50 (SNB-75): > 100 µM (inactive); GI50 (SNB-78): > 100 µM (inactive); GI50 (SR): > 100 µM (inactive); GI50 (UACC-62): > 100 µM (inactive); GI50 (UO-31): > 100 µM (inactive)
Cc1cccc(C)c1NC(=O)CCCC(=O)C1CC(=O)CCC1=O (centres undefined) | > 100 µM (inactive) | > 100 µM (inactive) | > 100 µM (inactive) | > 100 µM (inactive) | > 100 µM (inactive) | > 100 µM (inactive) | > 100 µM (inactive) | > 100 µM (inactive) | > 100 µM (inactive) | > 100 µM (inactive) | > 100 µM (inactive) | > 100 µM (inactive) | > 100 µM (inactive) | > 100 µM (inactive) | > 100 µM (inactive) | > 100 µM (inactive) | > 100 µM (inactive) | > 100 µM (inactive) | > 100 µM (inactive) | > 100 µM (inactive) | GI50 (A498): > 100 µM (inactive); GI50 (EKVX): > 100 µM (inactive); GI50 (HCT-15): > 100 µM; GI50 (HT-29): > 100 µM (inactive); GI50 (KM-20L2): > 100 µM (inactive); GI50 (OVCAR-3): > 100 µM (inactive); GI50 (OVCAR-8): > 100 µM (inactive); GI50 (RXF 393): > 100 µM (inactive); GI50 (SNB-19): > 100 µM (inactive); GI50 (SNB-75): > 100 µM (inactive); GI50 (SNB-78): > 100 µM (inactive); GI50 (SR): > 100 µM (inactive); GI50 (U-251): > 100 µM (inactive); GI50 (UACC-257): > 100 µM (inactive); GI50 (UACC-62): > 100 µM (inactive); GI50 (UO-31): > 100 µM (inactive); GI50 (XF498): > 100 µM (inactive)
